Laboratory results: PubChem BioAssay (NCI)
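The concentration for 50% growth inhibition is given as GI50. TGI denotes the concentration required for complete inhibition of growth.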

Legend:
Assay in all cases: NCI anticancer screen, dose series, 384-well format
[1] = system: 786-0 renal
[2] = system: A498 renal
[3] = system: A549 NSCLC
[4] = system: ACHN renal
[5] = system: BT-549 breast
[6] = system: CAKI-1 renal
[7] = system: CCRF-CEM leukemia
[8] = system: COLO 205 colon
[9] = system: DU-145 prostate
[10] = system: EKVX NSCLC
[11] = system: HCC-2998 colon
[12] = system: HCT-15 colon
[13] = system: HL-60(TB) leukemia
[14] = system: HOP-62 NSCLC
[15] = system: HOP-92 NSCLC
[16] = system: HS 578T breast
[17] = system: HT29 colon
[18] = system: IGROV1 ovarian
[19] = system: K-562 leukemia
[20] = system: KM12 colon
[21] = system: LOX IMVI melanoma
[22] = system: M14 melanoma
[23] = system: MALME-3M melanoma
[24] = system: MCF7 breast
[25] = system: MDA-MB-231 breast
[26] = system: MDA-MB-435 melanoma
[27] = system: MDA-MB-468 breast
[28] = system: MOLT-4 leukemia
[29] = system: NCI-H226 lung
[30] = system: NCI-H23 lung
[31] = system: NCI-H322M lung
[32] = system: NCI-H460 NSCLC
[33] = system: NCI-H522 lung
[34] = system: NCI/ADR-RES ovarian
[35] = system: OVCAR-3 ovarian
[36] = system: OVCAR-4 ovarian
[37] = system: OVCAR-5 ovarian
[38] = system: OVCAR-8 ovarian
[39] = system: PC-3 prostate
[40] = system: RPMI-8226 leukemia
[41] = system: RXF 393 renal
[42] = system: SF-268 CNS
[43] = system: SF-295 CNS
[44] = system: SF-539 CNS
[45] = system: SK-MEL-28 melanoma
[46] = system: SK-MEL-5 melanoma
[47] = system: SK-OV-3 ovarian
[48] = system: SN12C renal
[49] = system: SNB-19 CNS
[50] = system: SNB-75 CNS
[51] = system: SR leukemia
[52] = system: SW-620 colon
[53] = system: T-47D breast
[54] = system: TK-10 renal
[55] = system: U251 glioblastoma
[56] = system: UACC-257 melanoma
[57] = system: UACC-62 melanoma
[58] = system: UO-31 renal

Compound: COc1cc2c(Oc3ccc4[nH]c(C)cc4c3F)ncnc2cc1OCCCN1CCCC1
- GI50 [1]: 1330 nM
- TGI [1]: 2630 nM
- GI50 [2]: 1240 nM
- TGI [2]: 2590 nM
- GI50 [3]: 1460 nM
- TGI [3]: 2970 nM
- GI50 [4]: 1200 nM
- TGI [4]: 2640 nM
- GI50 [5]: 1040 nM
- TGI [5]: 2220 nM
- GI50 [6]: 1050 nM
- TGI [6]: 2360 nM
- GI50 [7]: 1630 nM
- TGI [7]: 2990 nM
- GI50 [8]: 1690 nM
- TGI [8]: 3.35 µM
- GI50 [9]: 1920 nM
- TGI [9]: 3.77 µM
- GI50 [10]: 1160 nM
- TGI [10]: 2840 nM
- GI50 [11]: 1590 nM
- TGI [11]: 2970 nM
- GI50 [12]: 1210 nM
- TGI [12]: 2530 nM
- GI50 [13]: 1930 nM
- TGI [13]: 3.35 µM
- GI50 [14]: 1500 nM
- TGI [14]: 2930 nM
- GI50 [15]: 578 nM
- TGI [15]: 1920 nM
- GI50 [16]: 1260 nM
- TGI [16]: 2530 nM
- GI50 [17]: 1460 nM
- TGI [17]: 2800 nM
- GI50 [18]: 632 nM
- TGI [18]: 1950 nM
- GI50 [19]: 1130 nM
- TGI [19]: 2370 nM
- GI50 [20]: 1810 nM
- TGI [20]: 3.28 µM
- GI50 [21]: 1620 nM
- TGI [21]: 2990 nM
- GI50 [22]: 1680 nM
- TGI [22]: 3.06 µM
- GI50 [23]: 1540 nM
- TGI [23]: 2880 nM
- GI50 [24]: 1400 nM
- TGI [24]: 2740 nM
- GI50 [25]: 1760 nM
- TGI [25]: 3.53 µM
- GI50 [26]: 1770 nM
- TGI [26]: 3.41 µM
- GI50 [27]: 1040 nM
- TGI [27]: 2240 nM
- GI50 [28]: 1380 nM
- TGI [28]: 2680 nM
- GI50 [29]: 306 nM
- TGI [29]: 1960 nM
- GI50 [30]: 1150 nM
- TGI [30]: 2800 nM
- GI50 [31]: 1790 nM
- TGI [31]: 4.56 µM
- GI50 [32]: 1780 nM
- TGI [32]: 3.27 µM
- GI50 [33]: 1550 nM
- TGI [33]: 2910 nM
- GI50 [34]: 2350 nM
- TGI [34]: 5.9 µM
- GI50 [35]: 1630 nM
- TGI [35]: 3.06 µM
- GI50 [36]: 1140 nM
- TGI [36]: 2430 nM
- GI50 [37]: 1390 nM
- TGI [37]: 3.18 µM
- GI50 [38]: 1580 nM
- TGI [38]: 2960 nM
- GI50 [39]: 1770 nM
- TGI [39]: 3.3 µM
- GI50 [40]: 1610 nM
- TGI [40]: 2970 nM
- GI50 [41]: 1380 nM
- TGI [41]: 2690 nM
- GI50 [42]: 1660 nM
- TGI [42]: 3.22 µM
- GI50 [43]: 1730 nM
- TGI [43]: 3.13 µM
- GI50 [44]: 488 nM
- TGI [44]: 1830 nM
- GI50 [45]: 1660 nM
- TGI [45]: 3.03 µM
- GI50 [46]: 1300 nM
- TGI [46]: 2580 nM
- GI50 [47]: 1260 nM
- TGI [47]: 2530 nM
- GI50 [48]: 591 nM
- TGI [48]: 2410 nM
- GI50 [49]: 1570 nM
- TGI [49]: 4.71 µM
- GI50 [50]: 1320 nM
- TGI [50]: 2740 nM
- GI50 [51]: 1560 nM
- TGI [51]: 2910 nM
- GI50 [52]: 1630 nM
- TGI [52]: 3.1 µM
- GI50 [53]: 1300 nM
- TGI [53]: 2580 nM
- GI50 [54]: 1760 nM
- TGI [54]: 3.28 µM
- GI50 [55]: 1580 nM
- TGI [55]: 3 µM
- GI50 [56]: 1610 nM
- TGI [56]: 2970 nM
- GI50 [57]: 1630 nM
- TGI [57]: 3000 nM
- GI50 [58]: 1390 nM
- TGI [58]: 2770 nM
